For this experiment, the target named is T1, human P2Y12 receptor (Homo sapiens, UniProt Q9H244).
T1 construct: expressed in transfected cells; host or cells: Chinese Hamster Ovary (CHO) cells
Kind of experiment: P2Y12 receptor binding assay. The note with it: CHO cells with recombinant expression of the human P2Y12 receptor; tritium-labeled 2-methyl-S-ADP; RT, 2 hours. Here is the method:
P2Y12 Receptor Binding Assay
Chinese Hamster Ovary (CHO) cells with recombinant expression of the human P2Y12 receptor were cultured in 24 well cell-culture plates. Cells were washed three times with binding buffer (50 mM Tris pH 7.4, 100 mM NaCl, 1 mM EDTA, 0.5% BSA). The cells were then incubated with 0.5 ml per well binding buffer containing tritium-labeled 2-methyl-thio-adenosine 5′-diphosphate (2-methyl-S-ADP) (between 100,000 and 300,000 dpm per well) and various concentrations of test compounds. After incubation at RT for 2 hours, cells were washed three times with binding buffer. Then, cells were solubilized by addition of 0.5 ml solubilization buffer (SDS, NaOH, EDTA). The content of each well was then transferred into beta-counter vials and 2.0 ml of Ultima Gold Scintillation liquid was added.

Each structure is given as a SMILES string.

T1 sequence (Q9H244 whole entry): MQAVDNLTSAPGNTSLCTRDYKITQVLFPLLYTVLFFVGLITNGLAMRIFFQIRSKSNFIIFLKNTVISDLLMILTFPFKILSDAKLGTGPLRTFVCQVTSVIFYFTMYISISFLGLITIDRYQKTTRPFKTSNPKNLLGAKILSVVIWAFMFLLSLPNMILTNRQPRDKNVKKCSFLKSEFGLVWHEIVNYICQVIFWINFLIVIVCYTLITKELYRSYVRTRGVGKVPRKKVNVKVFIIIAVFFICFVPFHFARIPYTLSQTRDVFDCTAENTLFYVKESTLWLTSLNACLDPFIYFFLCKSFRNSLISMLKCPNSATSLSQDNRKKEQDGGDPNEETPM

As to `CCCCOC(=O)N1CCN(C(=O)[C@@H](NC(=O)c2cc(N3C[C@@H]4[C@H](N)[C@@H]4C3)nc(-c3ccccc3)n2)C(C)C)CC1` [Example 23, 4-((S)-2-{[6-((1α,5α,6β)-6-Amino-3-aza-bicyclo[3.1.0]hex-3-yl)-2-phenyl-pyrimidine-4-carbonyl]-amino}-3-methyl-butyryl)-piperazine-1-carboxylic acid butyl ester], the IC50 came to 266 nM.
Under `CCCCOC(=O)N1CCN(C(=O)[C@@H](NC(=O)c2cc(N3C[C@@H]4[C@@H](CC(=O)O)[C@@H]4C3)nc(-c3ccccc3)n2)C(C)C)CC1` [Example 24, 4-((S)-2-{[6-((1α,5α,6α)-6-Carboxymethyl-3-aza-bicyclo[3.1.0]hex-3-yl)-2-phenyl-pyrimidine-4-carbonyl]-amino}-3-methyl-butyryl)-piperazine-1-carboxylic acid butyl ester] stands 13 nM; under `CCCCOC(=O)N1CCN(C(=O)[C@@H](NC(=O)c2cc(N3C[C@@H]4[C@H](CC(=O)O)[C@@H]4C3)nc(-c3ccccc3)n2)C(C)C)CC1` [Example 25, 4-((S)-2-{[6-((1α,5α,6β)-6-Carboxymethyl-3-aza-bicyclo[3.1.0]hex-3-yl)-2-phenyl-pyrimidine-4-carbonyl]-amino}-3-methyl-butyryl)-piperazine-1-carboxylic acid butyl ester], 13 nM; under `CCCCOC(=O)N1CCN(C(=O)[C@@H](NC(=O)c2cc(N3C[C@@H]4[C@H](CCC(=O)O)[C@@H]4C3)nc(-c3ccccc3)n2)C(C)C)CC1` [Example 26, 4-[(S)-2-({6-[(1α,5α,6β)-6-(2-Carboxy-ethyl)-3-aza-bicyclo[3.1.0]hex-3-yl]-2-phenyl-pyrimidine-4-carbonyl}-amino)-3-methyl-butyryl]-piperazine-1-carboxylic acid butyl ester], 59 nM.
As for `CCCCOC(=O)N1CCN(C(=O)[C@@H](NC(=O)c2cc(N3C[C@@H]4[C@@H](CCC(=O)O)[C@@H]4C3)nc(-c3ccccc3)n2)C(C)C)CC1` [Example 27, 4-[(S)-2-({6-[(1α,5α,6α)-6-(2-Carboxy-ethyl)-3-aza-bicyclo[3.1.0]hex-3-yl]-2-phenyl-pyrimidine-4-carbonyl}-amino)-3-methyl-butyryl]-piperazine-1-carboxylic acid butyl ester], the figure is 151 nM.
As to `CCCCOC(=O)N1CCN(C(=O)[C@@H](NC(=O)c2cc(N3C[C@@H]4[C@H](C3)[C@@H]4C(=O)O)nc(-c3ccc(F)cc3)n2)C(C)C)CC1` [Example 28, (1α,5α,6β)-3-[6-[(S)-1-(4-Butoxycarbonyl-piperazine-1-carbonyl)-2-methyl-propylcarbamoyl]-2-(4-fluoro-phenyl)-pyrimidin-4-yl]-3-aza-bicyclo[3.1.0]hexane-6-carboxylic acid], the IC50 was 7 nM.
Take `CCCCOC(=O)N1CCN(C(=O)[C@@H](NC(=O)c2cc(N3C[C@@H]4[C@H](C3)[C@@H]4C(=O)O)nc(-c3ccc(C)cc3)n2)C(C)C)CC1` [Example 29, (1α,5α,6β)-3-{6-[(S)-1-(4-Butoxycarbonyl-piperazine-1-carbonyl)-2-methyl-propylcarbamoyl]-2-p-tolyl-pyrimidin-4-yl}-3-aza-bicyclo[3.1.0]hexane-6-carboxylic acid]: the IC50 worked out at 18 nM.
As for `CCCCOC(=O)N1CCN(C(=O)[C@@H](NC(=O)c2cc(N3C[C@@H]4[C@H](C3)[C@@H]4C(=O)O)nc(-c3cccc(C(F)(F)F)c3)n2)C(C)C)CC1` [Example 30, (1α,5α,6β)-3-[6-[(S)-1-(4-Butoxycarbonyl-piperazine-1-carbonyl)-2-methyl-propylcarbamoyl]-2-(3-trifluoromethyl-phenyl)-pyrimidin-4-yl]-3-aza-bicyclo[3.1.0]hexane-6-carboxylic acid], the figure is 250 nM; as for `CCCCOC(=O)N1CCN(C(=O)C(NC(=O)c2cc(N3CC4C(C3)C4C(=O)O)nc(-c3ccccc3)n2)C(C)C)CC1C` [Example 31, (1α,5α,6β)-3-{6-[(S)-1-((R)-4-Butoxycarbonyl-3-methyl-piperazine-1-carbonyl)-2-methyl-propylcarbamoyl]-2-phenyl-pyrimidin-4-yl}-3-aza-bicyclo[3.1.0]hexane-6-carboxylic acid], 53 nM; as for `CC(C)[C@H](NC(=O)c1cc(N2C[C@@H]3C(C(=O)O)[C@@H]3C2)nc(-c2ccccc2)n1)C(=O)N1CCN(C(=O)OCc2ccccc2)[C@H](C)C1` (stereo partly drawn) [Example 32, (1α,5α,6β)-3-{6-[(S)-1-((R)-4-Benzyloxycarbonyl-3-methyl-piperazine-1-carbonyl)-2-methyl-propylcarbamoyl]-2-phenyl-pyrimidin-4-yl}-3-aza-bicyclo[3.1.0]hexane-6-carboxylic acid], 477 nM.
As for `CCCCOC(=O)N1CCN(C(=O)CNC(=O)c2cc(N3C[C@@H]4[C@H](C3)[C@@H]4C(=O)O)nc(-c3ccccc3)n2)CC1` [Example 33, (1α,5α,6β)-3-{6-[2-(4-Butoxycarbonyl-piperazin-1-yl)-2-oxo-ethylcarbamoyl]-2-phenyl-pyrimidin-4-yl}-3-aza-bicyclo[3.1.0]hexane-6-carboxylic acid], the figure is 68 nM.
Turning to `CCCCOC(=O)N1CCN(C(=O)[C@H](C)NC(=O)c2cc(N3C[C@@H]4[C@H](C3)[C@H]4C(=O)O)nc(-c3ccccc3)n2)CC1` [Example 34, (1α,5α,6α)-3-{6-[(S)-2-(4-Butoxycarbonyl-piperazin-1-yl)-1-methyl-2-oxo-ethylcarbamoyl]-2-phenyl-pyrimidin-4-yl}-3-aza-bicyclo[3.1.0]hexane-6-carboxylic acid], the half-maximal inhibitory concentration (IC50) stood at 229 nM.
`CCCCOC(=O)N1CCN(C(=O)[C@H](C)NC(=O)c2cc(N3C[C@@H]4[C@H](C3)[C@@H]4C(=O)O)nc(-c3ccccc3)n2)CC1` [Example 35, (1α,5α,6β)-3-{6-[(S)-2-(4-Butoxycarbonyl-piperazin-1-yl)-1-methyl-2-oxo-ethylcarbamoyl]-2-phenyl-pyrimidin-4-yl}-3-aza-bicyclo[3.1.0]hexane-6-carboxylic acid]: the concentration for half-maximal inhibition (IC50) amounted to 51 nM.
On to `CCCCOC(=O)N1CCN(C(=O)[C@H](CC)NC(=O)c2cc(N3C[C@@H]4[C@H](C3)[C@@H]4C(=O)O)nc(-c3ccccc3)n2)CC1` [Example 36, (1α,5α,6β)-3-{6-[(S)-1-(4-Butoxycarbonyl-piperazine-1-carbonyl)-propylcarbamoyl]-2-phenyl-pyrimidin-4-yl}-3-aza-bicyclo[3.1.0]hexane-6-carboxylic acid], for which the half-inhibitory concentration (IC50) worked out at 96 nM.
Under `CCCCOC(=O)N1CCN(C(=O)[C@H](CCC)NC(=O)c2cc(N3C[C@@H]4[C@H](C3)[C@@H]4C(=O)O)nc(-c3ccccc3)n2)CC1` [Example 37, (1α,5α,6β)-3-{6-[(S)-1-(4-Butoxycarbonyl-piperazine-1-carbonyl)-butylcarbamoyl]-2-phenyl-pyrimidin-4-yl}-3-aza-bicyclo[3.1.0]hexane-6-carboxylic acid] stands 123 nM; under `CCCCOC(=O)N1CCN(C(=O)[C@H](CCCC)NC(=O)c2cc(N3C[C@@H]4[C@H](C3)[C@@H]4C(=O)O)nc(-c3ccccc3)n2)CC1` [Example 38, (1α,5α,6β)-3-{6-[(S)-1-(4-Butoxycarbonyl-piperazine-1-carbonyl)-pentylcarbamoyl]-2-phenyl-pyrimidin-4-yl}-3-aza-bicyclo[3.1.0]hexane-6-carboxylic acid], 136 nM; under `CCCCOC(=O)N1CCN(C(=O)[C@H](CC(C)C)NC(=O)c2cc(N3C[C@@H]4[C@H](C3)[C@@H]4C(=O)O)nc(-c3ccccc3)n2)CC1` [Example 39, (1α,5α,6β)-3-{6-[(S)-1-(4-Butoxycarbonyl-piperazine-1-carbonyl)-3-methyl-butylcarbamoyl]-2-phenyl-pyrimidin-4-yl}-3-aza-bicyclo[3.1.0]hexane-6-carboxylic acid], 124 nM.
Take `CCCCOC(=O)N1CCN(C(=O)[C@H](CC2CC2)NC(=O)c2cc(N3C[C@@H]4[C@H](C3)[C@@H]4C(=O)O)nc(-c3ccccc3)n2)CC1` [Example 40, (1α,5α,6β)-3-{6-[(S)-2-(4-Butoxycarbonyl-piperazin-1-yl)-1-cyclopropylmethyl-2-oxo-ethylcarbamoyl]-2-phenyl-pyrimidin-4-yl}-3-aza-bicyclo[3.1.0]hexane-6-carboxylic acid]: the IC50 came out at 143 nM.
On to `CCCCOC(=O)N1CCN(C(=O)[C@@H](NC(=O)c2cc(N3C[C@@H]4[C@H](C3)[C@@H]4C(=O)O)nc(-c3ccccc3)n2)C2CC2)CC1` [Example 41, (1α,5α,6β)-3-{6-[(S)-2-(4-Butoxycarbonyl-piperazin-1-yl)-1-cyclopropyl-2-oxo-ethylcarbamoyl]-2-phenyl-pyrimidin-4-yl}-3-aza-bicyclo[3.1.0]hexane-6-carboxylic acid], for which the 50% inhibitory concentration (IC50) is 22 nM.
As for `CCCCOC(=O)N1CCN(C(=O)C(NC(=O)c2cc(N3CC4C(C3)C4C(=O)O)nc(-c3ccccc3)n2)C(C)O)CC1` [Example 42, (1α,5α,6β)-3-{6-[(1S,2R)-1-(4-Butoxycarbonyl-piperazine-1-carbonyl)-2-hydroxy-propylcarbamoyl]-2-phenyl-pyrimidin-4-yl}-3-aza-bicyclo[3.1.0]hexane-6-carboxylic acid], the figure is 50 nM.
As for `CCCCOC(=O)N1CCN(C(=O)[C@@H](NC(=O)c2cc(N3C[C@@H]4[C@H](C3)[C@@H]4C(=O)O)nc(-c3ccccc3)n2)C(C)(C)C)CC1` [Example 43, (1α,5α,6β)-3-{6-[(S)-1-(4-Butoxycarbonyl-piperazine-1-carbonyl)-2,2-dimethyl-propylcarbamoyl]-2-phenyl-pyrimidin-4-yl}-3-aza-bicyclo[3.1.0]hexane-6-carboxylic acid], the figure is 330 nM.

As usually defined, the IC50 is the concentration at which inhibition is half-maximal.

The values above are taken from patent US8288385B2, “6-(3-aza-bicyclo[3.1.0]hex-3-yl)-2-phenyl-pyrimidines” (Actelion Pharmaceuticals Ltd., priority 2009, dated 2012).
